Measurements reported in the supplement of paper PMC8967900.

Columns and labels:
Test in all cases: selective drug sensitivity score (sDSS, relative to normal bone marrow) (sDSS (score)); higher = more potent and effective on the cell line relative to normal bone marrow cells
Conditions in all cases: 72 h
ALL-PO = test system: ALL-PO
KASUMI-2 = test system: KASUMI-2
MOLT-14 = test system: MOLT-14
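Further: ALL cell lines in 384-well plates, five doses spanning 10,000-fold, each plate scaled between vehicle and 100 µmol/L benzalkonium chloride controls, sDSS an adapted area-under-curve metric.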

For COC12C(COC(N)=O)C3=C(C(=O)C(C)=C(N)C3=O)N1CC1NC12 (stereo in doubt) [Mitomycin_C] (top concentration 10000 nM), the “selective drug sensitivity score” value (ALL-PO) was -0.76, the “selective drug sensitivity score” value (KASUMI-2) was 4.24 and the “selective drug sensitivity score” value (MOLT-14) was -2.86.
In the case of CO[C@@H]1[C@H](N(C)C(=O)c2ccccc2)C[C@H]2O[C@]1(C)n1c3ccccc3c3c4c(c5c6ccccc6n2c5c31)C(=O)NC4 [Midostaurin] (top concentration 10000 nM), the “selective drug sensitivity score” value (ALL-PO) is reported as 14.8, the “selective drug sensitivity score” value (KASUMI-2) is reported as -1.14 and the “selective drug sensitivity score” value (MOLT-14) is reported as 11.6.
For O=C(/C=C\n1cnc(-c2cc(C(F)(F)F)cc(C(F)(F)F)c2)n1)NNc1cnccn1 [Selinexor] (top concentration 10000 nM), the “selective drug sensitivity score” value (ALL-PO) was 13.5, the “selective drug sensitivity score” value (KASUMI-2) was 16.7 and the “selective drug sensitivity score” value (MOLT-14) was 16.7.
In the case of CO[C@H](C(=O)[C@@H](O)[C@@H](C)O)[C@@H]1Cc2cc3cc(O[C@H]4C[C@@H](O[C@H]5C[C@@H](O)[C@H](O)[C@@H](C)O5)[C@@H](O)[C@@H](C)O4)c(C)c(O)c3c(O)c2C(=O)[C@H]1O[C@H]1C[C@@H](O[C@H]2C[C@@H](O[C@H]3C[C@](C)(O)[C@H](O)[C@@H](C)O3)[C@H](O)[C@@H](C)O2)[C@H](O)[C@@H](C)O1 [Plicamycin] (top concentration 10000 nM), the “selective drug sensitivity score” value (ALL-PO) is reported as -15.9, the “selective drug sensitivity score” value (KASUMI-2) is reported as -17.2 and the “selective drug sensitivity score” value (MOLT-14) is reported as -10.3.
For FC(F)(F)c1ccc(CNc2ccc(Cc3c[nH]c4ncc(Cl)cc34)cn2)cn1 [Pexidartinib] (top concentration 10000 nM), the “selective drug sensitivity score” value (ALL-PO) was 6.68, the “selective drug sensitivity score” value (KASUMI-2) was -2.22 and the “selective drug sensitivity score” value (MOLT-14) was -2.02.
Cc1nc(NC(=O)N2CCC[C@H]2C(N)=O)sc1-c1ccnc(C(C)(C)C(F)(F)F)c1 [Alpelisib] (top concentration 2500 nM) was tested, and the “selective drug sensitivity score” value (ALL-PO) was 3.28, the “selective drug sensitivity score” value (KASUMI-2) was 1.98 and the “selective drug sensitivity score” value (MOLT-14) was -0.82.
With CC(C)Oc1ccc(-c2nn([C@@H](C)c3oc4ccc(F)cc4c(=O)c3-c3cccc(F)c3)c3ncnc(N)c23)cc1F [TGR-1202] (top concentration 2500 nM) the “selective drug sensitivity score” value (ALL-PO) was 3.84, the “selective drug sensitivity score” value (KASUMI-2) was -2.36 and the “selective drug sensitivity score” value (MOLT-14) was -2.56.
Nc1cc(F)ccc1NC(=O)c1ccc(CNC(=O)/C=C/c2cccnc2)cc1 [Tucidinostat] (top concentration 10000 nM) was tested, and the “selective drug sensitivity score” value (ALL-PO) was 2.94, the “selective drug sensitivity score” value (KASUMI-2) was 8.84 and the “selective drug sensitivity score” value (MOLT-14) was 3.94.
With COc1cc2c(cc1-c1c(C)noc1C)ncc1[nH]c(=O)n([C@H](C)c3ccccn3)c12 [I-BET151] (top concentration 10000 nM) the “selective drug sensitivity score” value (ALL-PO) was 6.36, the “selective drug sensitivity score” value (KASUMI-2) was -2.94 and the “selective drug sensitivity score” value (MOLT-14) was 0.46.
With CN(C)C1CCN(C(=O)c2ccc(NC(=O)Nc3ccc(-c4nc(N5CCOCC5)nc(N5CCOCC5)n4)cc3)cc2)CC1 [Gedatolisib] (top concentration 1000 nM) the “selective drug sensitivity score” value (ALL-PO) was 1.06, the “selective drug sensitivity score” value (KASUMI-2) was 7.56 and the “selective drug sensitivity score” value (MOLT-14) was -3.24.
Cn1ncc(Cl)c1-c1cc(C(=O)N[C@H](CN)Cc2ccc(F)c(F)c2)oc1Cl [Uprosertib] (top concentration 10000 nM) was tested, and the “selective drug sensitivity score” value (ALL-PO) was 9, the “selective drug sensitivity score” value (KASUMI-2) was 8.3 and the “selective drug sensitivity score” value (MOLT-14) was 1.1.
For NC(=O)N1CCC(CC(=O)N2CCC([C@H]3c4ncc(Br)cc4CCc4cc(Cl)cc(Br)c43)CC2)CC1 [Lonafarnib] (top concentration 100000 nM), the “selective drug sensitivity score” value (ALL-PO) was 4.64, the “selective drug sensitivity score” value (KASUMI-2) was 6.14 and the “selective drug sensitivity score” value (MOLT-14) was 14.1.
For Cn1cc(-c2ccc(F)c(C(F)(F)F)c2)nc1C1CCN(c2ncnc3[nH]ncc23)CC1 (top concentration 10000 nM), the “selective drug sensitivity score” value (ALL-PO) was 0.66, the “selective drug sensitivity score” value (KASUMI-2) was 13.3 and the “selective drug sensitivity score” value (MOLT-14) was -0.14.
For CC(=O)c1cc2c(o1)C(=O)c1ccccc1C2=O [Napabucasin] (top concentration 20000 nM), the “selective drug sensitivity score” value (ALL-PO) was 0.92, the “selective drug sensitivity score” value (KASUMI-2) was -3.38 and the “selective drug sensitivity score” value (MOLT-14) was -0.98.
CC(C)[C@H](C(=O)Nc1ccc(C(=O)NO)cc1)c1ccccc1 [AR-42] (top concentration 10000 nM) was tested, and the “selective drug sensitivity score” value (ALL-PO) was 10.7, the “selective drug sensitivity score” value (KASUMI-2) was 16 and the “selective drug sensitivity score” value (MOLT-14) was 8.48.
In the case of COc1ccc(COc2cc3oc(=O)c4cc(C(C)O)ccc4c3cc2OC)cc1 (configuration not stated) [Palomid-529] (top concentration 10000 nM), the “selective drug sensitivity score” value (ALL-PO) is reported as 2.86, the “selective drug sensitivity score” value (KASUMI-2) is reported as -0.24 and the “selective drug sensitivity score” value (MOLT-14) is reported as 2.76.
In the case of CCn1c(-c2nonc2N)nc2c(C#CC(C)(C)O)ncc(OC[C@H]3CCCNC3)c21 (top concentration 10000 nM), the “selective drug sensitivity score” value (ALL-PO) is reported as 8.18, the “selective drug sensitivity score” value (KASUMI-2) is reported as 6.38 and the “selective drug sensitivity score” value (MOLT-14) is reported as 1.68.
O=C(O)c1ccc2c(c1)nc(Nc1cccc(Cl)c1)c1ccncc12 [Silmitasertib] (top concentration 10000 nM) was tested, and the “selective drug sensitivity score” value (ALL-PO) was 1.9, the “selective drug sensitivity score” value (KASUMI-2) was -1.4 and the “selective drug sensitivity score” value (MOLT-14) was 4.1.
With Nc1ccn([C@@H]2O[C@H](CO)[C@@H](O)C2(F)F)c(=O)n1 [Gemcitabine] (top concentration 1000 nM) the “selective drug sensitivity score” value (ALL-PO) was 8.06, the “selective drug sensitivity score” value (KASUMI-2) was 15.1 and the “selective drug sensitivity score” value (MOLT-14) was 14.3.
CN(c1ncccc1CNc1nc(Nc2ccc3c(c2)CC(=O)N3)ncc1C(F)(F)F)S(C)(=O)=O (top concentration 10000 nM) was tested, and the “selective drug sensitivity score” value (ALL-PO) was 6.62, the “selective drug sensitivity score” value (KASUMI-2) was -0.38 and the “selective drug sensitivity score” value (MOLT-14) was -0.08.
O=C(Nc1c[nH]nc1-c1nc2ccc(CN3CCOCC3)cc2[nH]1)NC1CC1 [AT9283] (top concentration 1000 nM) was tested, and the “selective drug sensitivity score” value (ALL-PO) was 6.32, the “selective drug sensitivity score” value (KASUMI-2) was 6.22 and the “selective drug sensitivity score” value (MOLT-14) was 13.8.
For CC1(C)CCC(c2ccc(Cl)cc2)=C(CN2CCN(c3ccc(C(=O)NS(=O)(=O)c4ccc(N[C@H](CCN5CCOCC5)CSc5ccccc5)c(S(=O)(=O)C(F)(F)F)c4)cc3)CC2)C1 [Navitoclax] (top concentration 10000 nM), the “selective drug sensitivity score” value (ALL-PO) was 23.6, the “selective drug sensitivity score” value (KASUMI-2) was 24.8 and the “selective drug sensitivity score” value (MOLT-14) was 12.7.
With CNC(=O)c1cccc(-c2ccc3c(N4CCOC[C@@H]4C)nc(N4CCOC[C@@H]4C)nc3n2)c1 [Vistusertib] (top concentration 10000 nM) the “selective drug sensitivity score” value (ALL-PO) was 10, the “selective drug sensitivity score” value (KASUMI-2) was 15 and the “selective drug sensitivity score” value (MOLT-14) was 2.12.
O=C1CCc2c(Oc3ccc4c(c3)[C@@H]3[C@H](O4)[C@H]3c3nc4cc(C(F)(F)F)ccc4[nH]3)ccnc2N1 [Lifirafenib (BGB-283)] (top concentration 10000 nM) was tested, and the “selective drug sensitivity score” value (ALL-PO) was 6.98, the “selective drug sensitivity score” value (KASUMI-2) was 1.98 and the “selective drug sensitivity score” value (MOLT-14) was 4.58.
With CC(C)Nc1cc(-c2c[nH]c(C(=O)N[C@H](CO)c3cccc(Cl)c3)c2)c(Cl)cn1 [Ulixertinib] (top concentration 10000 nM) the “selective drug sensitivity score” value (ALL-PO) was 6.72, the “selective drug sensitivity score” value (KASUMI-2) was 7.82 and the “selective drug sensitivity score” value (MOLT-14) was 6.12.
COCCNCc1ccc(-c2cc3nccc(Oc4ccc(NC(=O)C5(C(=O)Nc6ccc(F)cc6)CC5)cc4F)c3s2)nc1 [Sitravatinib] (top concentration 2500 nM) was tested, and the “selective drug sensitivity score” value (ALL-PO) was 14.8, the “selective drug sensitivity score” value (KASUMI-2) was -0.42 and the “selective drug sensitivity score” value (MOLT-14) was 1.08.
For COc1cccc2c1C(=O)c1c(O)c3c(c(O)c1C2=O)C[C@@](O)(/C(CO)=N/NC(=O)CCCCCN1C(=O)C=CC1=O)C[C@@H]3O[C@H]1C[C@H](N)[C@H](O)[C@H](C)O1 [Aldoxorubicin] (top concentration 1000 nM), the “selective drug sensitivity score” value (ALL-PO) was -2.06, the “selective drug sensitivity score” value (KASUMI-2) was 8.54 and the “selective drug sensitivity score” value (MOLT-14) was 12.9.
COc1c(C)cnc(Cn2cnc3c(Cl)nc(N)nc32)c1C [BIIB021] (top concentration 10000 nM) was tested, and the “selective drug sensitivity score” value (ALL-PO) was 5.88, the “selective drug sensitivity score” value (KASUMI-2) was 3.88 and the “selective drug sensitivity score” value (MOLT-14) was 7.28.
With O=C(Nc1cccc(NC(=O)c2cccc(O)c2O)c1)c1cccc(O)c1O [MST-312] (top concentration 10000 nM) the “selective drug sensitivity score” value (ALL-PO) was 5.6, the “selective drug sensitivity score” value (KASUMI-2) was -1.6 and the “selective drug sensitivity score” value (MOLT-14) was 5.8.
Cn1cc(-c2[nH]c3cc(NC(=O)[C@H](N)C4CCCCC4)cc4c3c2C=NNC4=O)cn1 (top concentration 10000 nM) was tested, and the “selective drug sensitivity score” value (ALL-PO) was 9.28, the “selective drug sensitivity score” value (KASUMI-2) was -6.12 and the “selective drug sensitivity score” value (MOLT-14) was 2.68.
In the case of Nc1cc(C(F)(F)F)c(-c2cc(N3CCOCC3)nc(N3CCOCC3)n2)cn1 [Buparlisib] (top concentration 10000 nM), the “selective drug sensitivity score” value (ALL-PO) is reported as 9.58, the “selective drug sensitivity score” value (KASUMI-2) is reported as 2.08 and the “selective drug sensitivity score” value (MOLT-14) is reported as 5.48.
Cn1cnc2c(F)c(Nc3ccc(Br)cc3Cl)c(C(=O)NOCCO)cc21 [Selumetinib] (top concentration 10000 nM) was tested, and the “selective drug sensitivity score” value (ALL-PO) was -2.8, the “selective drug sensitivity score” value (KASUMI-2) was 7.5 and the “selective drug sensitivity score” value (MOLT-14) was 7.2.
For COC(=O)N[C@@H](C)CNc1nccc(-c2cn(C(C)C)nc2-c2cc(Cl)cc(NS(C)(=O)=O)c2F)n1 [Encorafenib] (top concentration 1000 nM), the “selective drug sensitivity score” value (ALL-PO) was 0, the “selective drug sensitivity score” value (KASUMI-2) was 0 and the “selective drug sensitivity score” value (MOLT-14) was 0.
With CCS(=O)(=O)N1CCN(c2ccc(Nc3ncc(C(N)=O)c(NC4CC4)n3)cc2)CC1 [Cerdulatinib] (top concentration 10000 nM) the “selective drug sensitivity score” value (ALL-PO) was 6.04, the “selective drug sensitivity score” value (KASUMI-2) was -11.9 and the “selective drug sensitivity score” value (MOLT-14) was -3.16.
